# Test results as given in patent publication US6737383B1, “Herbicidal oxadiazolidines” (priority 1999, dated 2004).
# Tests used:
# velvetleaf = assay: Test B pre/postemergence velvetleaf; type: in vivo, Abutilon theophrasti
# Summary of the method: (§1)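 Response is a visual 0-to-10 score relative to untreated plants, where 0 means no effect and 10 means complete control, taken twelve to sixteen days after application. Treatments went onto soil at planting and onto foliage of 1- to 4-leaf plants, using a surfactant-containing non-phytotoxic solvent.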
# soybean = assay: Test B pre/postemergence soybean; type: in vivo, Glycine max
# Summary of the method: as §1
# winter wheat [1] = assay: Test E winter wheat; type: in vivo, Triticum aestivum; conditions: Postemergence
# Summary of the method: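 Compound formulated with surfactant in a non-phytotoxic solvent (postemergence: young 1- to 4-leaf plants); held in greenhouse approx. 21–28 days; visual assessment against untreated plants.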
# winter barley = assay: Test E winter barley; type: in vivo, Hordeum vulgare; conditions: Preemergence
# wild oat = assay: Test E wild oat; type: in vivo, Avena fatua; conditions: Preemergence
# blackgrass = assay: Test E blackgrass; type: in vivo, Alopecurus myosuroides; conditions: Preemergence
# green foxtail = assay: Test E green foxtail; type: in vivo, Setaria viridis; conditions: Preemergence
# winter wheat [2] = assay: Test E winter wheat; type: in vivo, Triticum aestivum; conditions: Preemergence
# Italian ryegrass = assay: Test E Italian ryegrass; type: in vivo, Lolium multiflorum; conditions: Preemergence
# duck salad = assay: Test B flood test duck salad; type: in vivo, Heteranthera limosa
# Summary of the method: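 Flood test on plants grown to the 2-leaf stage; treated plants kept in greenhouse twelve to sixteen days, then visually rated against controls on a 0 (no effect) to 10 (complete control) scale.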
# cocklebur = assay: Test B pre/postemergence cocklebur; type: in vivo, Xanthium strumarium
# Summary of the method: as §1
# [3] = Postemergence, Rate 62 g/ha, scale 0 to 10, 0 is no effect, 10 is complete control
# [4] = Postemergence, Rate 250 g/ha, scale 0 to 10, 0 no effect, 10 complete control
# [5] = Preemergence, Rate 62 g/ha, scale 0 to 10 (0 no effect, 10 complete control)
# [6] = Preemergence, Rate 125 g/ha, scale 0 to 10 (0 no effect, 10 complete control)
# [7] = Preemergence, Rate 250 g/ha, scale of 0 to 10 where 0 is no effect and 10 is complete control
# [8] = Preemergence, Rate 500 g/ha, scale 0 (no effect) to 10 (complete control)
# [9] = Rate 125 g/ha, Postemergence, scale 0 to 10, 0 no effect, 10 complete control
# [10] = Rate 500 g/ha, Postemergence, scale 0 to 10, 0 no effect, 10 complete control
# [11] = Rate 1000 g/ha, 0 to 100 scale, 0 is no effect and 100 is complete control
# [12] = Rate 500 g/ha, 0 to 100 scale where 0 is no effect and 100 is complete control
# [13] = Rate 1000 g/ha, 0 to 100 scale where 0 is no effect and 100 is complete control
# [14] = Rate 500 g/ha, listed under Postemergence (flood test species), scale 0 to 10, 0 no effect, 10 complete control
# [15] = Preemergence, Rate 62 g/ha, scale of 0 to 10 where 0 is no effect and 10 is complete control
# [16] = Preemergence, Rate 500 g/ha, scale of 0 to 10 where 0 is no effect and 10 is complete control
# [17] = Rate 62 g/ha, Postemergence, scale of 0 to 10 where 0 is no effect and 10 is complete control
# [18] = Rate 125 g/ha, Postemergence, scale 0 to 10
# [19] = Rate 500 g/ha, Postemergence, scale 0 to 10
# [20] = Rate 500 g/ha, 0 to 100 scale, 0 is no effect, 100 is complete control
# [21] = Rate 1000 g/ha, 0 to 100 scale, 0 no effect, 100 complete control
# [22] = Rate 125 g/ha, Pre-emergence, flood test species, scale 0 to 10 where 0 is no effect and 10 is complete control
# [23] = Rate 250 g/ha, Pre-emergence, flood-test species, scale 0 to 10, 0 is no effect, 10 is complete control
# [24] = Rate 500 g/ha, Pre-emergence, flood test species, scale 0 to 10 (0 no effect, 10 complete control)
# [25] = Postemergence, Rate 125 g/ha, scale 0 to 10, 0 is no effect, 10 is complete control
# [26] = Rate 125 g/ha, 0 to 100 scale (0 no effect, 100 complete control)
# [27] = Rate 500 g/ha, 0 to 100 scale (0 no effect, 100 complete control)
smiles,measurement,setting,value
Cc1ccccc1-n1c(=O)on(C(=O)N(c2cc(F)cc(F)c2)C(C)C)c1=O [Compound 67],Velvetleaf plant response rating,velvetleaf; [3],0
same,Velvetleaf plant response rating,velvetleaf; [4],0
same,Velvetleaf plant response rating,velvetleaf; [5],0
same,"Plant response rating, Velvetleaf",velvetleaf; [6],0
same,"Plant response rating, Velvetleaf",velvetleaf; [7],0
same,Velvetleaf plant response rating,velvetleaf; [8],0
same,Velvetleaf plant response rating,velvetleaf; [9],0
same,Velvetleaf plant response rating,velvetleaf; [10],0
same,Soybean plant response rating,soybean; [3],0
same,Soybean plant response rating,soybean; [4],1
same,Soybean plant response rating,soybean; [5],0
same,"Plant response rating, Soybean",soybean; [6],0
same,"Plant response rating, Soybean",soybean; [7],0
same,Soybean plant response rating,soybean; [8],0
same,Soybean plant response rating,soybean; [9],1
same,Soybean plant response rating,soybean; [10],1
same,"Plant response rating, Wheat (winter)","winter wheat [1]; Rate 250 g/ha, 0 to 100 scale (0 no effect, 100 complete control)",20
same,"Plant response rating, Wheat (winter)",winter wheat [1]; [11],40
same,"Plant response rating, Wheat (winter)","winter wheat [1]; Rate 500 g/ha, 0 to 100 scale, 0 no effect, 100 complete control",30
same,"Plant response rating, Barley (winter)","winter barley; Rate 250 g/ha, 0 to 100 scale",20
same,"Plant response rating, Barley (winter)",winter barley; [12],40
same,"Plant response rating, Barley (winter)",winter barley; [13],40
same,"Plant response rating, Wild oat",wild oat; [12],40
same,"Plant response rating, Wild oat",wild oat; [13],50
same,"Plant response rating, Blackgrass","blackgrass; Rate 250 g/ha, 0 to 100 scale",10
same,"Plant response rating, Blackgrass",blackgrass; [12],20
same,"Plant response rating, Blackgrass",blackgrass; [13],40
same,"Plant response rating, Green foxtail","green foxtail; Rate 250 g/ha, 0 to 100 scale",30
same,"Plant response rating, Green foxtail",green foxtail; [12],55
same,"Plant response rating, Green foxtail",green foxtail; [13],60
same,"Plant response rating, Wheat (winter)","winter wheat [2]; Rate 250 g/ha, 0 to 100 scale",10
same,"Plant response rating, Wheat (winter)",winter wheat [2]; [12],10
same,"Plant response rating, Wheat (winter)",winter wheat [2]; [13],20
same,"Plant response rating, I. Ryegrass","Italian ryegrass; Rate 250 g/ha, 0 to 100 scale",40
same,"Plant response rating, I. Ryegrass",Italian ryegrass; [12],30
same,"Plant response rating, I. Ryegrass",Italian ryegrass; [13],50
same,Ducksalad plant response rating,duck salad; [3],0
same,Ducksalad plant response rating,"duck salad; Rate 125 g/ha, Postemergence section (flood test species), scale 0 to 10, 0 no effect, 10 complete control",0
same,Ducksalad plant response rating,duck salad; [14],0
same,Ducksalad plant response rating,"duck salad; flood test, listed under Postemergence, Rate 250 g/ha, scale 0 to 10, 0 no effect, 10 complete control",0
same,Cocklebur plant response rating,cocklebur; [3],0
same,Cocklebur plant response rating,cocklebur; [4],1
same,Cocklebur plant response rating,cocklebur; [5],0
same,"Plant response rating, Cocklebur",cocklebur; [6],0
same,"Plant response rating, Cocklebur",cocklebur; [7],0
same,Cocklebur plant response rating,cocklebur; [8],0
same,Cocklebur plant response rating,cocklebur; [9],0
same,Cocklebur plant response rating,cocklebur; [10],1
C#CCn1c(=O)on(C(=O)N(c2ccc(F)cc2)C(C)C)c1=O [Compound 212],Velvetleaf plant response rating,velvetleaf; [15],2
same,Velvetleaf plant response rating,velvetleaf; [7],5
same,"Plant response rating, Velvetleaf",velvetleaf; [16],5
same,Velvetleaf plant response rating,velvetleaf; [17],3
same,Velvetleaf plant response rating,velvetleaf; [18],4
same,"Plant response rating (0 to 10; 0 is no effect, 10 is complete control), Velvetleaf","velvetleaf; Rate 250 g/ha, Postemergence",5
same,Soybean plant response rating,soybean; [15],0
same,Soybean plant response rating,soybean; [7],0
same,"Plant response rating, Soybean",soybean; [16],0
same,Soybean plant response rating,soybean; [17],1
same,Soybean plant response rating,soybean; [18],2
same,Soybean plant response rating,"soybean; Rate 125 g/ha, Preemergence, scale of 0 to 10 where 0 is no effect and 10 is complete control",0
same,"Plant response rating (0 to 10; 0 is no effect, 10 is complete control), Soybean","soybean; Rate 250 g/ha, Postemergence",3
same,Soybean plant response rating,soybean; [19],4
same,"Plant response rating, Wheat (winter)",winter wheat [1]; [11],75
same,"Plant response rating, Wheat (winter)",winter wheat [1]; [20],70
same,Barley (winter) plant response rating (0 to 100 scale),winter barley; Rate 250 g/ha,20
same,"Plant response rating, Barley (winter)",winter barley; [12],40
same,"Plant response rating, Barley (winter)",winter barley; [21],50
same,Wild oat plant response rating (0 to 100 scale),wild oat; Rate 250 g/ha,60
same,"Plant response rating, Wild oat",wild oat; [12],70
same,"Plant response rating, Wild oat",wild oat; [21],70
same,Blackgrass plant response rating (0 to 100 scale),blackgrass; Rate 250 g/ha,20
same,"Plant response rating, Blackgrass",blackgrass; [12],50
same,"Plant response rating, Blackgrass",blackgrass; [21],65
same,Green foxtail plant response rating (0 to 100 scale),green foxtail; Rate 250 g/ha,55
same,"Plant response rating, Green foxtail",green foxtail; [12],65
same,"Plant response rating, Green foxtail",green foxtail; [21],100
same,Wheat (winter) plant response rating (0 to 100 scale),winter wheat [2]; Rate 250 g/ha,10
same,"Plant response rating, Wheat (winter)",winter wheat [2]; [12],30
same,"Plant response rating, Wheat (winter)",winter wheat [2]; [21],60
same,I. Ryegrass plant response rating (0 to 100 scale),Italian ryegrass; Rate 250 g/ha,60
same,"Plant response rating, I. Ryegrass",Italian ryegrass; [12],70
same,"Plant response rating, I. Ryegrass",Italian ryegrass; [21],70
same,Ducksalad plant response rating,"duck salad; Rate 62 g/ha, headed Pre-emergence (flood test species), scale 0 to 10 (0 no effect, 10 complete control)",0
same,Ducksalad plant response rating,duck salad; [22],0
same,Ducksalad plant response rating,duck salad; [23],0
same,Ducksalad plant response rating,duck salad; [24],2
same,Cocklebur plant response rating,cocklebur; [15],0
same,Cocklebur plant response rating,cocklebur; [7],0
same,"Plant response rating, Cocklebur",cocklebur; [16],0
same,Cocklebur plant response rating,cocklebur; [17],2
same,Cocklebur plant response rating,cocklebur; [18],2
same,"Plant response rating (0 to 10; 0 is no effect, 10 is complete control), Cocklebur","cocklebur; Rate 250 g/ha, Postemergence",2
same,Cocklebur plant response rating,cocklebur; [19],5
CCC(CC)n1c(=O)on(C(=O)N(c2ccccc2)C(C)C)c1=O [Compound 354],"Plant response rating, Velvetleaf",velvetleaf; [25],0
same,"Plant response rating, Velvetleaf",velvetleaf; [5],1
same,Velvetleaf plant response rating (0 to 10 scale),"velvetleaf; Preemergence, Rate 125 g/ha",5
same,Velvetleaf plant response rating,velvetleaf; [7],6
same,Velvetleaf plant response rating,velvetleaf; [16],7
same,Velvetleaf plant response rating,velvetleaf; [17],0
same,"Plant response rating, Velvetleaf",velvetleaf; [10],2
same,"Plant response rating, Soybean",soybean; [25],5
same,"Plant response rating, Soybean",soybean; [5],0
same,Soybean plant response rating (0 to 10 scale),"soybean; Preemergence, Rate 125 g/ha",0
same,Soybean plant response rating,soybean; [7],0
same,Soybean plant response rating,soybean; [16],1
same,Soybean plant response rating,soybean; [17],3
same,"Plant response rating, Soybean",soybean; [10],7
same,"Plant response rating, Wheat (winter)","winter wheat [1]; Rate 125 g/ha, 0 to 100 scale, 0 is no effect, 100 is complete control",30
same,"Plant response rating, Wheat (winter)","winter wheat [1]; Rate 250 g/ha, 0 to 100 scale, 0 is no effect, 100 is complete control",40
same,"Plant response rating, Wheat (winter)",winter wheat [1]; [20],50
same,"Plant response rating, Barley (winter)",winter barley; [26],20
same,"Plant response rating, Barley (winter)","winter barley; Rate 250 g/ha, 0 to 100 scale, 0 no effect, 100 complete control",30
same,"Plant response rating, Barley (winter)",winter barley; [27],40
same,"Plant response rating, Wild oat",wild oat; [26],0
same,"Plant response rating, Wild oat","wild oat; Rate 250 g/ha, 0 to 100 scale",30
same,"Plant response rating, Wild oat",wild oat; [27],40
same,"Plant response rating, Blackgrass",blackgrass; [26],50
same,"Plant response rating, Blackgrass","blackgrass; Rate 250 g/ha, 0 to 100 scale",55
same,"Plant response rating, Blackgrass",blackgrass; [27],30
same,"Plant response rating, Green foxtail",green foxtail; [26],85
same,"Plant response rating, Green foxtail","green foxtail; Rate 250 g/ha, 0 to 100 scale",80
same,"Plant response rating, Green foxtail",green foxtail; [27],100
same,"Plant response rating, Wheat (winter)",winter wheat [2]; [26],30
same,"Plant response rating, Wheat (winter)","winter wheat [2]; Rate 250 g/ha, 0 to 100 scale",50
same,"Plant response rating, Wheat (winter)",winter wheat [2]; [27],60
same,"Plant response rating, I. Ryegrass",Italian ryegrass; [26],50
same,"Plant response rating, I. Ryegrass","Italian ryegrass; Rate 250 g/ha, 0 to 100 scale",60
same,"Plant response rating, I. Ryegrass",Italian ryegrass; [27],90
same,"Plant response rating, Ducksalad","duck salad; Postemergence (flood test), Rate 125 g/ha, scale 0 to 10, 0 is no effect, 10 is complete control",3
same,Ducksalad plant response rating,"duck salad; Rate 62 g/ha, Postemergence (flood test species), scale of 0 to 10 where 0 is no effect and 10 is complete control",0
same,"Plant response rating, Ducksalad (0 to 10 scale, 0 is no effect, 10 is complete control)","duck salad; Rate 62 g/ha, flood test species, Pre-emergence, visual evaluation after twelve to sixteen days",0
same,Ducksalad plant response rating,duck salad; [22],0
same,Ducksalad plant response rating,duck salad; [23],0
same,"Plant response rating, Ducksalad",duck salad; [14],5
same,Ducksalad plant response rating,duck salad; [24],0
same,"Plant response rating, Cocklebur",cocklebur; [25],0
same,"Plant response rating, Cocklebur",cocklebur; [5],0
same,Cocklebur plant response rating (0 to 10 scale),"cocklebur; Preemergence, Rate 125 g/ha",0
same,Cocklebur plant response rating,cocklebur; [7],0
same,Cocklebur plant response rating,cocklebur; [17],0
same,"Plant response rating, Cocklebur",cocklebur; [10],1
